Assay results taken from article PMC8348686, “The Pharmacological Profile of Second Generation Pyrovalerone Cathinones and Related Cathinone Derivative” (International Journal of Molecular Sciences, 2021).
Read-outs that look alike come from different tables or passages of the source.

How the values were obtained:
[1] = biological target: h5-HT2A receptor (Homo sapiens, UniProt P28223); experiment: Radioligand binding, [3H]-ketanserin; set-up: expressed in transfected cells; host or cells: HEK293 cell preparations
Experimental: (§1) The radioligand binding assays for the human 5-HT1A, 5-HT2A, and 5-HT2C receptors were examined as previously described by. In summary, the human embryonic kidney 293 (HEK293) cell preparations were stably transfected with the human 5-HT1A, 5-HT2A or 5-HT2C receptors and then incubated with their respective radiolabelled ligands at a concentration equal to the dissociation constant, Kd. The following radioligands were used for the 5-HT1A, 5-HT2A, and 5-HT2C receptors, respectively; 0.90 nM [^3H]8-hydroxy-2-(dipropylamino) tetralin (8-OH-DPAT), 0.40 nM [^3H]ketanserin, and 1.4 nM [^3H]mesulgerine. The radioligand displacement for each examined drug was determined. Specific binding of the radioligand to the target was calculated by subtracting the nonspecific binding (in the presence of the receptor’s competitor in excess) from the total observed binding. The following radioligand competitors were used for the 5-HT1A, 5-HT2A, and 5-HT2C receptors, respectively; 10 μM pindolol (5-HT1A receptor), 10 μM spiperone (5-HT2A receptor), and 10 μM mianserin (5-HT2C receptor).

[2] = biological target: T1, human dopamine (hDAT) uptake transporter (Homo sapiens, UniProt Q01959); experiment: Monoamine uptake inhibition, dopamine uptake in transfected HEK293 cells; type: cell-based
T1 construct: expressed in transfected cells; host or cells: HEK293
Experimental: (§2) The monoamine uptake transporter inhibition was examined in accordance with previously described methods by for each substance of interest.
(§3) Human embryonic kidney 293 (HEK293) cells (Invitrogen, Zug, Switzerland) stably transfected with the human norepinephrine (hNET), dopamine (hDAT), or serotonin (hSERT) uptake transporters were briefly cultured in Dulbecco’s modified Eagle’s medium (DMEM; Gibco, Life Technologies, Zug, Switzerland) containing 10% fetal bovine serum and 250 μg/mL geneticin (Gibco, Life Technologies, Zug, Switzerland). Next, the cells were detached at a confluency of 70−90% and resuspended in Krebs–Ringer Bicarbonate Buffer (Sigma-Aldrich, Buchs, Switzerland) at a concentration of 3 × 10^6 cells per ml. The uptake buffer was additionally supplemented with 0.2 mg/mL of ascorbic acid (Sigma–Aldrich, Buchs, Switzerland) for the [^3H]-DA uptake experiments.
(§4) In summary, using round bottom 96-well plates, 100 μL of cell suspension was incubated in 25 μL of buffer containing test substances, vehicle control (0.7% dimethyl sulfoxide, DMSO), or 10 μM of the respective monoamine uptake inhibitor, mainly fluoxetine (SERT), nisoxetine (NET), or mazindol (DAT) for 10 min at room temperature while on a rotary shaker at 450 rpm (Thermomixer Comfort, Eppendorf, Hamburg, Germany). Thereafter, the monoamine uptake transporter was initiated by the addition of 50 μL of each respective radiolabelled neurotransmitter ([^3H]-5-HT, [^3H]-DA or [^3H]-NE) dissolved in the uptake buffer to a final concentration of 5 nM for an additional 10 min. Then, 100 μL of cell suspension mixture was transferred to microcentrifuge tubes containing 50 μL of 3 M potassium hydroxide (KOH, Sigma–Aldrich, Buchs, Switzerland) and 200 μL silicon oil (1:1 mixture of silicon oil type AR20 and AR200; Sigma–Aldrich, Buchs, Switzerland). Immediately after, the tubes were centrifugated (3 min, 13200 rpm) to terminate the uptake reaction by allowing the cells to move through the silicon oil into the KOH, which then lysed the cells. Quickly after, the tubes were immediately frozen with liquid nitrogen. Afterwards, the frozen cell pellet was cut off into 6 mL scintillation vials (Perkin–Elmer, Schwerzenbach, Switzerland) filled with 500 μL of lysis buffer (5 mM EDTA, 0.05 M TRIS-HCl, 50 mM NaCl and 1% NP-40 in water). Directly after the vials were shaken for 1 h at 700 rpm and then each vial was filled with 3 mL of scintillation fluid (Ultimagold, Perkin–Elmer, Schwerzenbach, Switzerland). The uptake of the monoamines was measured using a liquid scintillation counter (Packard Tri-Carb Liquid Scintillation Counter 1900 TR).
(§5) The data were analysed using Prism software (version 8, GraphPad, San Diego, CA, USA) and was fitted by a nonlinear regression to variable-slope sigmoidal dose-response curve. The IC50 values were extracted in order to determine each drug’s inhibition potency at the various monoamine transporters.

[3] = biological target: T2, h5-HT2B receptor (Homo sapiens, UniProt P41595); experiment: Activation potency, FLIPR calcium assay in HEK293 cells; type: cell-based
T2 construct: expressed in transfected cells; host or cells: HEK293
Experimental: Human embryonic kidney 293 (HEK293) cells were transfected with the human 5-HT2B receptors, seed into 96-well plates coated with poly-D-lysine at a concentration of 50,000 cell per 0.1 mL and then incubated for overnight at 37 °C in high glucose Dulbecco’s modified Eagle’s medium (DMEM; Invitrogen, Zug, Switzerland) containing 10% fetal calf serum (non-dialyzed, heat-inactivated), 250 mg/L Geneticin, and 10 mL/L PenStrep (Gibco). The medium was then removed using snap inversion and the cells were incubated with the 100 μL/well of calcium indicator Fluo-3-solution for 45 min at 31 °C (Molecular Probes, Eugene, OR, USA). Thereafter, the solution was removed using snap inversion and replaced with fresh calcium indicator Fluo-3-solution for an additional 45 min at 31 °C. The cells were then washed with HBSS and 20 mM HEPES using the EMBLA cell washer and immediately after incubated with 100 μL of assay buffer. The plate was then put into the FLIPR, turned online and the test drugs, diluted in the assay buffer were added to the corresponding wells (25 μL/well). The corresponding concentration vs. response curves were fitted using nonlinear regression and the EC50 values were calculated. The efficacy (maximal activity) was calculated relative to 5-HT activity, which was defined as 100%.

[4] = biological target: T3, h5-HT2C receptor (Homo sapiens, UniProt P28335); experiment: Radioligand binding, [3H]-mesulgerine
T3 construct: expressed in transfected cells; host or cells: HEK293 cell preparations
T3 sequence (P28335 33-458): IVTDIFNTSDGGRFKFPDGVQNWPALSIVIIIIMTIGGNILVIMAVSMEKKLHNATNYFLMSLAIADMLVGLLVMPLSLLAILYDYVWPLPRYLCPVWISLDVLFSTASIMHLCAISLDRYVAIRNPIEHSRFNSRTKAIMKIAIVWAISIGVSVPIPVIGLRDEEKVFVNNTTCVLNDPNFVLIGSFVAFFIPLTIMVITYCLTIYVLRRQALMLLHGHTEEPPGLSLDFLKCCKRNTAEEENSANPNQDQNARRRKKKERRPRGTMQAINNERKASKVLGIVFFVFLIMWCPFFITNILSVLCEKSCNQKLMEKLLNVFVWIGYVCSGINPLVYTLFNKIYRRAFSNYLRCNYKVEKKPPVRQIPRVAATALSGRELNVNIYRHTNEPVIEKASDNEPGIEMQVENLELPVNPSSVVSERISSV
Experimental: as §1

[5] = biological target: T4, human serotonin (hSERT) uptake transporter (Homo sapiens, UniProt P31645); experiment: Monoamine uptake inhibition, serotonin uptake in transfected HEK293 cells; type: cell-based
T4 construct: expressed in transfected cells; host or cells: HEK293
Experimental: as §2, §3, §4, §5

T4 sequence (P31645 whole entry): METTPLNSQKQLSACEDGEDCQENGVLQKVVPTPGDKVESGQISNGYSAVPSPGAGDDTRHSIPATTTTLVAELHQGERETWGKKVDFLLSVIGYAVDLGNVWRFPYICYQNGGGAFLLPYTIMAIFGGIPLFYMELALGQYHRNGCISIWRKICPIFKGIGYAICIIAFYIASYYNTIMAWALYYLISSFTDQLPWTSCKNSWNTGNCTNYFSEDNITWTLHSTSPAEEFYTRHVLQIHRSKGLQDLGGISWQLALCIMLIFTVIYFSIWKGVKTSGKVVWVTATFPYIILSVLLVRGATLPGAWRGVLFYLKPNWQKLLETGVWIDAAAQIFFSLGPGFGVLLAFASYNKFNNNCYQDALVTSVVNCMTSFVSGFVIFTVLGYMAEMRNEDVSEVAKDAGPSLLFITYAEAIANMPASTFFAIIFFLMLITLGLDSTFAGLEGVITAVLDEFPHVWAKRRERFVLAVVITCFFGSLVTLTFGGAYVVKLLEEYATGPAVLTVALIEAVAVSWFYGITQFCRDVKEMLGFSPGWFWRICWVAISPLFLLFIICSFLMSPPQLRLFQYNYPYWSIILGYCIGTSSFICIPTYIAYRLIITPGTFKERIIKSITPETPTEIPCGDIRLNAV
T2 sequence (P41595 whole entry): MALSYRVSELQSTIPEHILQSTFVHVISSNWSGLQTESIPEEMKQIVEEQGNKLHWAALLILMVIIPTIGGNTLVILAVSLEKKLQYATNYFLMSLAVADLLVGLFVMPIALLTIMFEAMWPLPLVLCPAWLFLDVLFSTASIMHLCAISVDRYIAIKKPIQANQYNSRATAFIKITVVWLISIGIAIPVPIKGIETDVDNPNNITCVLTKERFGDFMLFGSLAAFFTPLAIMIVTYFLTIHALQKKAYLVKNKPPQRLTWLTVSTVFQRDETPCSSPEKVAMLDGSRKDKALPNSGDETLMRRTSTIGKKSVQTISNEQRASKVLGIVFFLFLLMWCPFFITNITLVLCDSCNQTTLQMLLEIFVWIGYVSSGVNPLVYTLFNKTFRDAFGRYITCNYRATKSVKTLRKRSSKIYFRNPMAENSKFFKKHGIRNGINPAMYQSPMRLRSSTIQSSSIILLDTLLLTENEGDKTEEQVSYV
Sequence of h5-HT2A receptor (P28223 whole entry): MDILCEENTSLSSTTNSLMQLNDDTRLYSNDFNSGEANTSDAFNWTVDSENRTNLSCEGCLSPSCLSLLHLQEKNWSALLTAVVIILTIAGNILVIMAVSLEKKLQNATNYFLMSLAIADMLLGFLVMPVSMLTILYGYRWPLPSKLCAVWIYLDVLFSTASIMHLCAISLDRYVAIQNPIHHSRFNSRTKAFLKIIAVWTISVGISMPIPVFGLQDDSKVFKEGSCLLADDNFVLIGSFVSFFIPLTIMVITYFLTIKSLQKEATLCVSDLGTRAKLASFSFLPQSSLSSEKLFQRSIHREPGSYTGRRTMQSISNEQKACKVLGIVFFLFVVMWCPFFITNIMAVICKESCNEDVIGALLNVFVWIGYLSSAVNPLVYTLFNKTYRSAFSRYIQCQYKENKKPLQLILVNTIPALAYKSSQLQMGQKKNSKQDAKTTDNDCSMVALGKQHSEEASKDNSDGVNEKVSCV
T1 sequence (Q01959 whole entry): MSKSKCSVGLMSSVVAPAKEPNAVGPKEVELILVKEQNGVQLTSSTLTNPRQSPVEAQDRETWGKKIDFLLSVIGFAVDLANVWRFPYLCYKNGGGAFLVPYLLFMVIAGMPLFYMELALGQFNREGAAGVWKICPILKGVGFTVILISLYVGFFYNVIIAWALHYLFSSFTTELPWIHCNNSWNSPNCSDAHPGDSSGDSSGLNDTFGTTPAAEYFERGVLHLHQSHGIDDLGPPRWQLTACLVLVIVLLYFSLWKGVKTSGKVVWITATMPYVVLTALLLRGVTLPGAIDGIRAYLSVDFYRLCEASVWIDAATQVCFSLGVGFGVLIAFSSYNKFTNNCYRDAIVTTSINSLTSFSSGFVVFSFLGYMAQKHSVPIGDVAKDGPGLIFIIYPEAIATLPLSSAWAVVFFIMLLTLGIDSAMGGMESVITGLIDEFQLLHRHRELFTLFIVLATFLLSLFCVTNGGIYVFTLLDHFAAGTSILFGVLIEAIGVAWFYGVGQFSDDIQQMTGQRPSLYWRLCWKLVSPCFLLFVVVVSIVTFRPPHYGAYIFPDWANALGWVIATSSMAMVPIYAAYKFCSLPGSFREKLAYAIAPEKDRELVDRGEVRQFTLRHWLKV

Cc1ccc(C(=O)C(C)N2CCCC2)cc1 (stereo not drawn) [4-MePPP, 4-methyl-α-pyrrolidinopropiophenone]
Ki [1]: 1.3 ± 0.4 µM | IC50 [2]: 0.75 µM | fold lower potency at the DAT ([2]; compared to pyrovalerone and MPHP): 15 fold | EC50 [3]: > 10 µM | Ki [4]: > 5.1 µM | IC50 [5]: 55 µM

CCC(C(=O)c1ccc(F)cc1)N1CCCC1 (stereo not drawn) [4F-PBP, 4-fluoro-α-pyrrolidinobutiophenone]
Ki [1]: > 13 µM | IC50 [2]: 0.5 µM | EC50 [3]: > 20 µM | Ki [4]: > 15 µM | IC50 [5]: 177 µM

CNC(C)Cc1ccc2c(c1)OCO2 (centres unmarked) [MDMA, 3,4-methylenedioxymethamphetamine, reference compound]
IC50 [2]: 13 µM | IC50 [5]: 1.6 µM

CCC(C(=O)c1ccc2c(c1)OCO2)N1CCCC1 (stereo not drawn) [MDPBP, 3,4-methylenedioxy-α-pyrrolidinobutiophenone]
Ki [1]: > 13 µM | IC50 [2]: 0.07 µM | EC50 [3]: > 20 µM | Ki [4]: > 15 µM | IC50 [5]: 11 µM

CCCCC(C(=O)c1ccc2c(c1)OCO2)N1CCCC1 (stereo not drawn) [MDPHP, 3,4-methylenedioxy-α-pyrrolidinohexanophenone]
Ki [1]: > 13 µM | IC50 [2]: 0.05 µM | EC50 [3]: > 20 µM | Ki [4]: > 15 µM | IC50 [5]: 9 µM

CC(C(=O)c1ccc2c(c1)OCO2)N1CCCC1 (stereo not drawn) [MDPPP, 3,4-methylenedioxy-α-pyrrolidinopropiophenone]
Ki [1]: 8 ± 1.2 µM | IC50 [2]: 0.54 µM | EC50 [3]: > 20 µM | Ki [4]: > 15 µM | IC50 [5]: 43 µM

CCCC(C(=O)c1ccc2c(c1)OCO2)N1CCCC1 (centres unmarked) [MDPV, 3,4-methylenedioxypyrovalerone]
Ki [1]: > 13 µM | IC50 [2]: 0.03 µM | EC50 [3]: > 20 µM | Ki [4]: > 15 µM | IC50 [5]: 8.4 µM

COc1ccc(C(=O)C(C)N2CCCC2)cc1 (stereo not drawn) [MOPPP, 4-methoxy-α-pyrrolidinopropiophenone]
Ki [1]: > 13 µM | IC50 [2]: 4.6 µM | DAT/SERT Ratio (95% CI) ([2]; (1/DAT IC50):(1/SERT IC50)): 20 (4.0–40) | fold lower inhibition potency at the DAT ([2]; compared to α-PPP): 8 fold | EC50 [3]: > 20 µM | Ki [4]: > 15 µM | IC50 [5]: 94 µM

CCCCC(C(=O)c1ccc(C)cc1)N1CCCC1 (stereo not drawn) [MPHP, 4-methyl-α-pyrrolidinohexanophenone]
Ki [1]: 7.3 ± 1.2 µM | IC50 [2]: 0.06 µM | EC50 [3]: > 20 µM | Ki [4]: > 15 µM | IC50 [5]: 11 µM

CCCCC(NCC)C(=O)c1ccccc1 (centres unmarked) [NEH, N-ethylamine-hexanophenone]
Ki [1]: > 13 µM | IC50 [2]: 0.18 µM | EC50 [3]: > 20 µM | Ki [4]: > 15 µM | IC50 [5]: 47 µM

CCCC(C(=O)c1ccc(C)cc1)N1CCCC1 (centres unmarked) [Pyrovalerone, pyrovalerone]
Ki [1]: > 13 µM | DAT/SERT Ratio (95% CI) [2]: 256 (125–450) | IC50 [2]: 0.05 µM | DAT/SERT Ratio (95% CI) ([2]; listed as pyrovalerone): > 72 | EC50 [3]: > 20 µM | Ki [4]: > 15 µM | IC50 [5]: 13 µM

CCCCC(C(=O)c1ccccc1)N1CCCC1 (stereo not drawn) [α-PHP, α-pyrrolidinohexanophenone]
Ki [1]: > 13 µM | IC50 [2]: 0.06 µM | DAT/SERT Ratio (95% CI) ([2]; (1/DAT IC50):(1/SERT IC50)): >1000 | fold higher potency at the DAT ([2]; compared to α-PPP): 9 fold | EC50 [3]: > 20 µM | Ki [4]: > 15 µM | IC50 [5]: 245 µM

CC(C(=O)c1ccccc1)N1CCCC1 (stereo not drawn) [α-PPP, α-pyrrolidinopropiophenone]
Ki [1]: 1.1 ± 0.3 µM | IC50 [2]: 0.56 µM | DAT/SERT Ratio (95% CI) ([2]; (1/DAT IC50):(1/SERT IC50)): >1000 | EC50 [3]: > 20 µM | Ki [4]: > 15 µM | IC50 [5]: > 1000 µM

CCCC(C(=O)c1ccccc1)N1CCCC1 (stereo not drawn) [α-PVP, α-pyrrolidinopentiophenone]
Ki [1]: > 13 µM | IC50 [2]: 0.03 µM | DAT/SERT Ratio (95% CI) ([2]; (1/DAT IC50):(1/SERT IC50)): >1000 | fold higher potency at the DAT ([2]; compared to α-PPP): 17 fold | EC50 [3]: > 20 µM | Ki [4]: > 15 µM | IC50 [5]: 279 µM
